{"source": "patent US9340590B2", "about": "(priority 2011, dated 2016)", "experiment_in_all_cases": "cell-based", "key": {"hNav1.7": {"target": "hNav1.7 (Homo sapiens, UniProt Q15858)", "type": "cell-based", "details": "IonWorks Quattro, read-out: IWQ Use Nav1.7"}, "hNav1.5": {"target": "hNav1.5 (Homo sapiens, UniProt Q14524)", "sequence (Q14524 whole entry, looked up)": "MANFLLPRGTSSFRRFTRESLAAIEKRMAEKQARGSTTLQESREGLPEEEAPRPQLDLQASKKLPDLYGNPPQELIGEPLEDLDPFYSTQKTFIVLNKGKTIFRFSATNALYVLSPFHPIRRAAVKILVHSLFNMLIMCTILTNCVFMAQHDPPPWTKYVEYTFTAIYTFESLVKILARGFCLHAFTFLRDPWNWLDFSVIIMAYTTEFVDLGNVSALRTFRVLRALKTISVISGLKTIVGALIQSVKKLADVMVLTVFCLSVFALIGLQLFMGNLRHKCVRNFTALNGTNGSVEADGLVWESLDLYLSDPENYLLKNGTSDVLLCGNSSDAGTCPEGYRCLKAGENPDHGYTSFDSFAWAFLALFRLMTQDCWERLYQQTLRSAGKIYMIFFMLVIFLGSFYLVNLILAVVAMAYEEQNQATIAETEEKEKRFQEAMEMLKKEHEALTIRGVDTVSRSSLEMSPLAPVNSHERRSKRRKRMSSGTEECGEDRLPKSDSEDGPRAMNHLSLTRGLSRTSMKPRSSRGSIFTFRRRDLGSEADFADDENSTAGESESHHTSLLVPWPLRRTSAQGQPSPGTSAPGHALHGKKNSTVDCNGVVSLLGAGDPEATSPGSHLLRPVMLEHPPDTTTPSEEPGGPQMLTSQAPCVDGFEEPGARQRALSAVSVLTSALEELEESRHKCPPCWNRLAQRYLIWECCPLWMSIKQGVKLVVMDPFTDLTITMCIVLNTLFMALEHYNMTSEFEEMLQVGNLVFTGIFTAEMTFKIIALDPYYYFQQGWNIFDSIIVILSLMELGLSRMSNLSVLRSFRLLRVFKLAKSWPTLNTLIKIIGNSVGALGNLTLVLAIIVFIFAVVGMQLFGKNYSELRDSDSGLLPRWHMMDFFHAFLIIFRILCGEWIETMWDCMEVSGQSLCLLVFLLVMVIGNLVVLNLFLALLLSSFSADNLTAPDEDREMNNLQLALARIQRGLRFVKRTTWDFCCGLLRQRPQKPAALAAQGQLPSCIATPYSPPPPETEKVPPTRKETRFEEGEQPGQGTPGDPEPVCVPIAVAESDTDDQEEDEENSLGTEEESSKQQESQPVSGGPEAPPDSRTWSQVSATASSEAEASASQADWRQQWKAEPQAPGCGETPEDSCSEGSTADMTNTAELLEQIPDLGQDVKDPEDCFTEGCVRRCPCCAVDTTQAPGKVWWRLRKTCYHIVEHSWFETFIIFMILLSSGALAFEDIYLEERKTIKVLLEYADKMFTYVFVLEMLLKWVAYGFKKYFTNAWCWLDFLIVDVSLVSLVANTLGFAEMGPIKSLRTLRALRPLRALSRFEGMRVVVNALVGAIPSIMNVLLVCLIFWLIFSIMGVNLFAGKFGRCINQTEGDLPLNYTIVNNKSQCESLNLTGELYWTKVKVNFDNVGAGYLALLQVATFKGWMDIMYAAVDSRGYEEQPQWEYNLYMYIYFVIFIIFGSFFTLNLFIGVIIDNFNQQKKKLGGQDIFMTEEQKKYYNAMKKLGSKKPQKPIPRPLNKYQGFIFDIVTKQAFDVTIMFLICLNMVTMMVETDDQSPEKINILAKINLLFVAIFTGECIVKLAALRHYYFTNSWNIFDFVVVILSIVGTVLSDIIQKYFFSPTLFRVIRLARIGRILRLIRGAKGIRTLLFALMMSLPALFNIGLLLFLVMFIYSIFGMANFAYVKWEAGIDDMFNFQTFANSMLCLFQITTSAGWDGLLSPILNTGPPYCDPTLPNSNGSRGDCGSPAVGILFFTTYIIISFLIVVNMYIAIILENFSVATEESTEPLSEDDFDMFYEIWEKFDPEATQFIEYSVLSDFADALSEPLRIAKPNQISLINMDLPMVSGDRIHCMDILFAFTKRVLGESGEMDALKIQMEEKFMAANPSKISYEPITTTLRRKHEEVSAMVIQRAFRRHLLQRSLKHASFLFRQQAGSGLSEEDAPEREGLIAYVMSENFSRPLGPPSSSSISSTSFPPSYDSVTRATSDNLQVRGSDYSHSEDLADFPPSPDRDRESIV", "details": "IonWorks Quattro, read-out: IWQ Use Nav1.5"}, "hNav1.3": {"target": "hNav1.3 (Homo sapiens, UniProt Q9NY46)", "sequence (Q9NY46 whole entry, looked up)": "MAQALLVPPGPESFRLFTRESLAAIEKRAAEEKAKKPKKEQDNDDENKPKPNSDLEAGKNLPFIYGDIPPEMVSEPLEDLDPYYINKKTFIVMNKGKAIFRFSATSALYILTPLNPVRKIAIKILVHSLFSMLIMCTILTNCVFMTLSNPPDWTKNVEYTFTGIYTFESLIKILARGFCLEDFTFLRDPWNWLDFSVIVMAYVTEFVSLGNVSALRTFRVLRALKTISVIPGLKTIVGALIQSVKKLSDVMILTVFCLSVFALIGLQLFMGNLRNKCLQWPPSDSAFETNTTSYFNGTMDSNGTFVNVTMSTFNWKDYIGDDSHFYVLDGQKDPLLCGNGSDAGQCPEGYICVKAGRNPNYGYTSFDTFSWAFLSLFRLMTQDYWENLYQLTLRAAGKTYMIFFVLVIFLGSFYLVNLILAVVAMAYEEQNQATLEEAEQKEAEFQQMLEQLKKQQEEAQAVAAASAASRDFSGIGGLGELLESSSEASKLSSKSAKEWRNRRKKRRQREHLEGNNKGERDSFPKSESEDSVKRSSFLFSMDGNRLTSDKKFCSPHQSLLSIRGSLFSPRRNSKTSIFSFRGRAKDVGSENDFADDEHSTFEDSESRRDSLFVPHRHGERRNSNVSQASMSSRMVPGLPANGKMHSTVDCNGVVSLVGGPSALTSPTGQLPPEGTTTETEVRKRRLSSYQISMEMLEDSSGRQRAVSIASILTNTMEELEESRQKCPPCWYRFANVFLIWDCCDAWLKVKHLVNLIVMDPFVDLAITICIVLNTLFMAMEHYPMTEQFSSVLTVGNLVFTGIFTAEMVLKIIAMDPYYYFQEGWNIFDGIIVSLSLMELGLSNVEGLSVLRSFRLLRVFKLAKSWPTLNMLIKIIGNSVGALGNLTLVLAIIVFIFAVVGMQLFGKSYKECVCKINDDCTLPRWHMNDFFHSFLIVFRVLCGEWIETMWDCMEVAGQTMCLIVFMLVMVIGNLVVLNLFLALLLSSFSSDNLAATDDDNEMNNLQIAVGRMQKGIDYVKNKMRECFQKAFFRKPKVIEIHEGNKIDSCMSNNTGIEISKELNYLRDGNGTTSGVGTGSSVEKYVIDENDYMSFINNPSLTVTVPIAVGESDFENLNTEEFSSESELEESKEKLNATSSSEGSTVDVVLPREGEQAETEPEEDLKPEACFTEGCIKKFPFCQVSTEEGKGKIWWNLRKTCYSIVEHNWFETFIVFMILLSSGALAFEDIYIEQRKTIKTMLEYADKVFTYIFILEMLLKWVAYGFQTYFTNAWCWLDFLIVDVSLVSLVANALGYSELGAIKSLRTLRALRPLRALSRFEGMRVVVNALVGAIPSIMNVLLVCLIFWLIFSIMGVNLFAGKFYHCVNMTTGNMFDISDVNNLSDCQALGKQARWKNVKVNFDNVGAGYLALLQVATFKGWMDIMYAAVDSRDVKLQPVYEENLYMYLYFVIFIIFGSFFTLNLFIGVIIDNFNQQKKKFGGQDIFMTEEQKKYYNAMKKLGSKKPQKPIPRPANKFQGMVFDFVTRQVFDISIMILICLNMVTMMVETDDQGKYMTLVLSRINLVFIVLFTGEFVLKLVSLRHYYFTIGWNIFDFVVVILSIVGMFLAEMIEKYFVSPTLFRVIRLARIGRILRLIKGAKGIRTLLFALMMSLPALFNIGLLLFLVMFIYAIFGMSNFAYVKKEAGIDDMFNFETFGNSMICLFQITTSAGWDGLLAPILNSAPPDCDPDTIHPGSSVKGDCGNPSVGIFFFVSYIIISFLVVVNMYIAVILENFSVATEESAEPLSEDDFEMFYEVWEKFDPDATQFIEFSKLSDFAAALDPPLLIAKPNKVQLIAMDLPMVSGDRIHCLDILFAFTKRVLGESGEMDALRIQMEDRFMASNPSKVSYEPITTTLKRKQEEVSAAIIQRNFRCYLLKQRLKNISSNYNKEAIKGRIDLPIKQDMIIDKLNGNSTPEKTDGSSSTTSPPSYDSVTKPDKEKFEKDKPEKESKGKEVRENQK", "details": "IonWorks Quattro, read-out: IWQ Use Nav1.3"}, "[1]": {"details": "use-dependent protocol, hNav1.7"}, "[2]": {"details": "use-dependent protocol, hNav1.5"}, "[3]": {"details": "use-dependent protocol, hNav1.3"}, "[4]": {"details": "clamped to −110 mV, depolarized to −10 mV, 5 min after compound, n=2"}}, "note": "Read-outs that look alike come from different tables or passages of the source. Positions of bridges follow the written chain, without caps; N, C: chain ends. Non-standard residues stand in square brackets, D forms with d. Residues, ends and D or L forms follow the SMILES beside them. hArg = N=C(N)NCCCC[C@H](N)C(=O)O; 2Pal = N[C@@H](Cc1ccccn1)C(=O)O; Pra = C#CC[C@H](N)C(=O)O"}
{"compound": "CC[C@H](C)[C@@H]1NC(=O)[C@@H]2CSSC[C@@H]3NC(=O)[C@H]([C@@H](C)O)NC(=O)[C@H](CC(C)C)NC(=O)[C@H](CC(N)=O)NC(=O)[C@@H]4CCCN4C(=O)[C@H](CCCNC(=N)N)NC(=O)[C@H](CSSC[C@H](NC(=O)[C@@H](N)CC(=O)O)C(=O)N[C@@H](CC(C)C)C(=O)NCC(=O)N[C@@H](Cc4ccccc4)C(=O)N[C@@H](CCSC)C(=O)N[C@@H](CCCNC(=N)N)C(=O)N[C@@H](CCCCN)C(=O)N2)NC(=O)[C@H](CSSC[C@@H](C(=O)N[C@@H](CCCCN)C(=O)N[C@@H](Cc2ccc(O)cc2)C(=O)N[C@H](C(=O)N[C@@H](Cc2ccccc2)C(N)=O)C(C)C)NC(=O)[C@H](Cc2c[nH]c4ccccc24)NC(=O)[C@H](CCCCN)NC(=O)[C@H](Cc2c[nH]cn2)NC(=O)[C@H]([C@@H](C)O)NC(=O)[C@H](CCCNC(=N)N)NC(=O)[C@H](CO)NC3=O)NC(=O)[C@H](CCCCN)NC(=O)[C@H](CC(=O)O)NC(=O)[C@H](CC(N)=O)NC(=O)[C@H](CC(=O)O)NC(=O)[C@@H]2CCCN2C1=O", "note": "[compound 329] (H-DCLGFMRKCIPDNDKCCRPNLTCSRTHKWCKYVF-NH2; disulfide 2-17, 9-23, 16-30)", "values": [{"measurement": "IC50", "setting": "hNav1.7; Use", "result": 120, "unit": "nM"}, {"measurement": "IC50", "setting": "hNav1.5; Use", "result": 4590, "unit": "nM"}, {"measurement": "IC50", "setting": "hNav1.3; Use", "result": 80, "unit": "nM"}]}
{"compound": "CC[C@H](C)[C@@H]1NC(=O)[C@@H]2CSSC[C@@H]3NC(=O)[C@H](C(C)C)NC(=O)[C@H](CC(C)C)NC(=O)[C@H](CC(N)=O)NC(=O)[C@@H]4CCCN4C(=O)[C@H](CCCNC(=N)N)NC(=O)[C@H](CSSC[C@H](NC(=O)[C@@H](N)CC(=O)O)C(=O)N[C@@H](CC(C)C)C(=O)NCC(=O)N[C@@H](C)C(=O)N[C@@H](CCSC)C(=O)N[C@@H](CCCNC(=N)N)C(=O)N[C@@H](CCCCN)C(=O)N2)NC(=O)[C@H](CSSC[C@@H](C(=O)N[C@@H](CCCCN)C(=O)N[C@@H](Cc2ccc(O)cc2)C(=O)N[C@H](C(=O)N[C@@H](Cc2ccccc2)C(N)=O)C(C)C)NC(=O)[C@H](Cc2c[nH]c4ccccc24)NC(=O)[C@H](CCCCNC(=N)N)NC(=O)[C@H](Cc2c[nH]cn2)NC(=O)[C@H]([C@@H](C)O)NC(=O)[C@H](CCCNC(=N)N)NC(=O)[C@H](CO)NC3=O)NC(=O)[C@H](CCCCN)NC(=O)[C@H](CC(=O)O)NC(=O)[C@H](CC(N)=O)NC(=O)[C@H](CC(=O)O)NC(=O)[C@@H]2CCCN2C1=O", "note": "[compound 744] (H-DCLGAMRKCIPDNDKCCRPNLVCSRTH[hArg]WCKYVF-NH2; disulfide 2-17, 9-23, 16-30)", "values": [{"measurement": "IC50", "setting": "hNav1.7; use-dependent block, hNav1.7", "result": 470, "unit": "nM"}, {"measurement": "IC50", "setting": "hNav1.5; use-dependent block, hNav1.5", "result": 39700, "unit": "nM"}, {"measurement": "IC50", "setting": "hNav1.3; use-dependent block, hNav1.3", "result": 820, "unit": "nM"}]}
{"compound": "CCCC[C@@H]1NC(=O)CNC(=O)[C@H](CC(C)C)NC(=O)[C@@H](NC(=O)[C@@H](N)CC(=O)O)CSSC[C@@H]2NC(=O)[C@@H]3CSSC[C@@H](C(=O)N[C@@H](CCCCN)C(=O)N[C@@H](Cc4ccc(O)cc4)C(=O)N[C@H](C(=O)N[C@@H](Cc4ccccc4)C(N)=O)C(C)C)NC(=O)[C@H](Cc4c[nH]c5ccccc45)NC(=O)[C@H](CCCCN)NC(=O)[C@H](Cc4c[nH]cn4)NC(=O)[C@H]([C@@H](C)O)NC(=O)[C@H](CCCNC(=N)N)NC(=O)[C@H](CO)NC(=O)[C@H](CSSC[C@H](NC(=O)[C@H](CCCCN)NC(=O)[C@H](CCCNC(=N)N)NC(=O)[C@H](CC(C)C)NC1=O)C(=O)N[C@@H]([C@@H](C)CC)C(=O)N1CCC[C@H]1C(=O)N[C@@H](CC(=O)O)C(=O)N[C@@H](CC(N)=O)C(=O)N[C@@H](CC(=O)O)C(=O)N[C@@H](CCCCN)C(=O)N3)NC(=O)[C@H](C(C)C)NC(=O)[C@H](CC(C)C)NC(=O)[C@H](CC(N)=O)NC(=O)[C@@H]1CCCN1C(=O)[C@H](CCCNC(=N)N)NC2=O", "note": "[compound 638]", "values": [{"measurement": "IC50", "setting": "hNav1.7; [1]", "result": 25, "unit": "nM"}, {"measurement": "IC50", "setting": "hNav1.5; [2]", "result": 10600, "unit": "nM"}, {"measurement": "IC50", "setting": "hNav1.3; [3]", "result": 99, "unit": "nM"}]}
{"compound": "C#CC[C@@H]1NC(=O)[C@H](CC(=O)O)NC(=O)[C@@H]2CCCN2C(=O)[C@H]([C@@H](C)CC)NC(=O)[C@@H]2CSSC[C@@H]3NC(=O)[C@H](C(C)C)NC(=O)[C@H](CC(C)C)NC(=O)[C@H](CC(N)=O)NC(=O)[C@@H]4CCCN4C(=O)[C@H](CCCNC(=N)N)NC(=O)[C@H](CSSC[C@H](NC(=O)[C@@H](N)CC(=O)O)C(=O)N[C@@H](CC(C)C)C(=O)NCC(=O)N[C@@H](C)C(=O)N[C@@H](Cc4ccccc4)C(=O)N[C@@H](CCCNC(=N)N)C(=O)N[C@@H](CCCCN)C(=O)N2)NC(=O)[C@H](CSSC[C@@H](C(=O)N[C@@H](CCCCN)C(=O)N[C@@H](Cc2ccc(O)cc2)C(=O)N[C@H](C(=O)N[C@@H](Cc2ccccc2)C(N)=O)C(C)C)NC(=O)[C@H](Cc2c[nH]c4ccccc24)NC(=O)[C@H](CCCCN)NC(=O)[C@H](Cc2c[nH]cn2)NC(=O)[C@H]([C@@H](C)O)NC(=O)[C@H](CCCNC(=N)N)NC(=O)[C@H](CO)NC3=O)NC(=O)[C@H](CCCCN)NC(=O)[C@H](CC(=O)O)NC1=O", "note": "[compound 793] (H-DCLGAFRKCIPD[Pra]DKCCRPNLVCSRTHKWCKYVF-NH2; disulfide 2-17, 9-23, 16-30)", "values": [{"measurement": "IC50", "setting": "hNav1.7; use-dependent block, hNav1.7", "result": 530, "unit": "nM"}, {"measurement": "IC50", "setting": "hNav1.5; use-dependent block, hNav1.5", "result": 28600, "unit": "nM"}, {"measurement": "IC50", "setting": "hNav1.3; use-dependent block, hNav1.3", "result": 470, "unit": "nM"}]}
{"compound": "CC[C@H](C)[C@H](N)C(=O)N[C@H]1CSSC[C@@H]2NC(=O)[C@@H]3CSSC[C@@H](C(=O)N[C@@H](CCCCN)C(=O)N[C@@H](Cc4ccc(O)cc4)C(=O)N[C@H](C(=O)N[C@@H](Cc4ccccc4)C(N)=O)C(C)C)NC(=O)[C@H](Cc4c[nH]c5ccccc45)NC(=O)[C@H](CCCCN)NC(=O)[C@H](Cc4c[nH]cn4)NC(=O)[C@H]([C@@H](C)O)NC(=O)[C@H](CCCNC(=N)N)NC(=O)[C@H](CO)NC(=O)[C@H](CSSC[C@H](NC(=O)[C@H](CCCCN)NC(=O)[C@H](CCCNC(=N)N)NC(=O)[C@H](CCSC)NC(=O)[C@H](Cc4ccccc4)NC(=O)CNC(=O)[C@H](CC(C)C)NC1=O)C(=O)N[C@@H]([C@@H](C)CC)C(=O)N1CCC[C@H]1C(=O)N[C@@H](CC(=O)O)C(=O)N[C@@H](CC(N)=O)C(=O)N[C@@H](CC(=O)O)C(=O)N[C@@H](CCCCN)C(=O)N3)NC(=O)[C@H](C(C)C)NC(=O)[C@H](CC(C)C)NC(=O)[C@H](CC(N)=O)NC(=O)[C@@H]1CCCN1C(=O)[C@H](CCCNC(=N)N)NC2=O", "note": "[SEQ ID NO: 189] (H-ICLGFMRKCIPDNDKCCRPNLVCSRTHKWCKYVF-NH2; disulfide 2-17, 9-23, 16-30)", "values": [{"measurement": "IC50", "setting": "hNav1.7; [4]", "result": 100, "unit": "nM"}, {"measurement": "IC50", "setting": "hNav1.5; [4]", "result": 8150, "unit": "nM"}, {"measurement": "IC50", "setting": "hNav1.3; [4]", "result": 70, "unit": "nM"}]}
{"compound": "CC[C@H](C)[C@@H]1NC(=O)[C@@H]2CSSC[C@@H]3NC(=O)[C@H](C(C)C)NC(=O)[C@H](CC(C)C)NC(=O)[C@H](CC(N)=O)NC(=O)[C@@H]4CCCN4C(=O)[C@H](CCCNC(=N)N)NC(=O)[C@H](CSSC[C@H](NC(=O)[C@@H](N)CC(=O)O)C(=O)N[C@@H](CC(C)C)C(=O)NCC(=O)N[C@@H](Cc4ccccc4)C(=O)N[C@@H](CCSC)C(=O)N[C@@H](CCCNC(=N)N)C(=O)N[C@@H](CCCCN)C(=O)N2)NC(=O)[C@H](CSSC[C@@H](C(=O)N[C@@H](CCCCN)C(=O)N[C@@H](Cc2ccc(O)cc2)C(=O)N[C@H](C(=O)N[C@@H](Cc2ccccn2)C(N)=O)C(C)C)NC(=O)[C@H](Cc2c[nH]c4ccccc24)NC(=O)[C@H](CCCCN)NC(=O)[C@H](Cc2c[nH]cn2)NC(=O)[C@H]([C@@H](C)O)NC(=O)[C@H](CCCNC(=N)N)NC(=O)[C@H](CO)NC3=O)NC(=O)[C@H](CCCCN)NC(=O)[C@H](CC(=O)O)NC(=O)[C@H](CC(N)=O)NC(=O)[C@H](CC(=O)O)NC(=O)[C@@H]2CCCN2C1=O", "note": "[compound 411] (H-DCLGFMRKCIPDNDKCCRPNLVCSRTHKWCKYV[2Pal]-NH2; disulfide 2-17, 9-23, 16-30)", "values": [{"measurement": "IC50", "setting": "hNav1.7; use-dependent, […]", "result": 5820, "unit": "nM"}, {"measurement": "IC50", "setting": "hNav1.5; use-dependent, […]", "result": 8160, "unit": "nM"}, {"measurement": "IC50", "setting": "hNav1.3; use-dependent, […]", "result": 4830, "unit": "nM"}]}
{"compound": "CC[C@H](C)[C@@H]1NC(=O)[C@@H]2CSSC[C@@H]3NC(=O)[C@H](C(C)C)NC(=O)[C@H](CC(C)C)NC(=O)[C@H](CC(N)=O)NC(=O)[C@@H]4CCCN4C(=O)[C@H](CCCNC(=N)N)NC(=O)[C@H](CSSC[C@H](NC(=O)[C@@H](N)CC(=O)O)C(=O)N[C@@H](CC(C)C)C(=O)NCC(=O)N[C@@H](Cc4ccc(C(=O)c5ccccc5)cc4)C(=O)N[C@@H](CC(C)C)C(=O)N[C@@H](CCCNC(=N)N)C(=O)N[C@@H](CCCCN)C(=O)N2)NC(=O)[C@H](CSSC[C@@H](C(=O)N[C@@H](CCCCN)C(=O)N[C@@H](Cc2ccc(O)cc2)C(=O)N[C@H](C(=O)N[C@@H](Cc2ccccc2)C(N)=O)C(C)C)NC(=O)[C@H](Cc2c[nH]c4ccccc24)NC(=O)[C@H](CCCCN)NC(=O)[C@H](Cc2c[nH]cn2)NC(=O)[C@H]([C@@H](C)O)NC(=O)[C@H](CCCNC(=N)N)NC(=O)[C@H](CO)NC3=O)NC(=O)[C@H](CCCCN)NC(=O)[C@H](CC(=O)O)NC(=O)[C@H](CC(N)=O)NC(=O)[C@H](CC(=O)O)NC(=O)[C@@H]2CCCN2C1=O", "note": "[compound 665]", "values": [{"measurement": "IC50", "setting": "hNav1.7; [1]", "result": 230, "unit": "nM"}, {"measurement": "IC50", "setting": "hNav1.5; [2]", "result": "> 5000", "unit": "nM"}, {"measurement": "IC50", "setting": "hNav1.3; [3]", "result": 30, "unit": "nM"}]}
